Holding throughout (parameters): Broth microdilution MIC following CLSI protocol, bacterial growth inhibition, at Medina Foundation
Test [1] deals with T1, Staphylococcus aureus MRSA MB5393.
T1 construct: MB5393 (MRSA)
The test is described as follows: microbe, parasite or virus in culture. The protocol: (§1) Testing of antimicrobial activities of desertomycin A and X was done by disk diffusion assay using Bacillus subtilis 164, Escherichia coli DH5a, and Saccharomyces cerevisiae BY4742 as test organisms. […] In vitro susceptibility for desertomycin A was determined at Medina Foundation (Granada, Spain) by the broth microdilution method following the Clinical and Laboratory Standards Institute protocol ([34]) using bacterial strains from the company’s strain collection (Table S4). […] In order to properly assess antibiotic activity of desertomycin A, it was tested, along with some clinically relevant antibiotics, on a panel of Gram-positive and Gram-negative bacteria using the broth microdilution method. […] This can be explained by different physiological conditions of bacterial cultures on the solid agar medium (initial disk assay) and in [compound left out] cultures (CLSI method).

For test [2], the system named is T2, Staphylococcus aureus MSSA MB2865.
T2 construct: MB2865 (MSSA)
Kind of test: microbe, parasite or virus in culture. The protocol:
as §1

For test [3], the system named is T3, E. faeciumVR.
T3 construct: VR (vancomycin-resistant)
Kind of test: organism not typed. The protocol: as §1

Test [4] concerns T4, E. faeciumVS.
T4 construct: VS (vancomycin-susceptible)
The test is described as follows: organism not typed. The protocol:
as §1

In another test the test system is T5, S. mutans ATCC25175.
T5 construct: ATCC 25175
The test is described as follows: microbe, parasite or virus in culture. The settings on record: Streptococcus mutans.

For test [5], the system named is T1, Staphylococcus aureus MRSA MB5393. The test is described as follows: microbe, parasite or virus in culture. The protocol: as §1, with “liquid” for “[compound left out]”
The source holds these as a separate data set.

For test [6], the system named is T2, Staphylococcus aureus MSSA MB2865. The test is described as follows: microbe, parasite or virus in culture. Here is the method: as §1, with “liquid” for “[compound left out]”
The source holds these as a separate data set.

For test [7], the system named is T3, E. faeciumVR. Kind of test: organism not typed. The protocol:
as §1, with “liquid” for “[compound left out]”
The source holds these as a separate data set.

The subject of test [8] is T4, E. faeciumVS. Kind of test: organism not typed. Here is the method: as §1, with “liquid” for “[compound left out]”
This is another data set of the same source.

SMILES strings stand for the structures. Values after ≈ are worked out from the molar mass of the structure shown. Read-outs that look alike come from different tables or passages of the source.

With `CC1=CCCC(C)C(O)C(C)C(O)CCC=CC(C)C(O)C=CC(C)C(O)C(C)=CC(O[C@H]2O[C@H](CO)[C@@H](O)[C@H](O)[C@@H]2O)C(O)CC(O)CC(O)CC(O)C(C)C(O)C(C)C(O)CC(O)CC(O)C=CCC(C(C)C(O)CCCN)OC1=O` (stereo partly shown) [Desertomycin A], the MIC in [1] is 64 µg/mL (≈ 53.7 µM); in test [2], 32 µg/mL (≈ 26.8 µM); in the test with E. faeciumVR [3] it was 128 µg/mL (≈ 107 µM); against E. faeciumVS [4], 64 µg/mL (≈ 53.7 µM); against S. mutans ATCC25175, 32 µg/mL (≈ 26.8 µM).

Regarding `O=C(O)c1cn(C2CC2)c2cc(N3CCNCC3)c(F)cc2c1=O` [Ciprofloxacin], the MIC in [1] was 0.5 µg/mL (≈ 1.51 µM); in [2], under 0.25 µg/mL; in the test with E. faeciumVR [3], 16 µg/mL (≈ 48.3 µM); against E. faeciumVS [4] it was over 128 µg/mL.

On to `CC1(C)S[C@@H]2[C@H](NC(=O)Cc3ccccc3)C(=O)N2[C@H]1C(=O)O` [Penicillin G], for which the MIC was 16 µg/mL (≈ 47.8 µM) in test [1], 16 µg/mL (≈ 47.8 µM) in test [2], over 128 µg/mL against E. faeciumVR [3] and over 128 µg/mL against E. faeciumVS [4].

`C[C@@H](O)[C@H]1C(=O)N2C(C(=O)O)=C(SCCNC=N)C[C@H]12` [Imipenem]: the MIC in test [1] was 8 µg/mL (≈ 26.7 µM); in test [2], under 0.25 µg/mL; in the test on E. faeciumVR [3] it was over 128 µg/mL; against E. faeciumVS [4], over 128 µg/mL.

As for `CNC(C)[C@@H]1CC[C@@H](N)[C@@H](O[C@H]2[C@H](O)[C@@H](O[C@H]3OC[C@](C)(O)[C@H](NC)[C@H]3O)[C@H](N)C[C@@H]2N)O1` (stereo partly shown) [Gentamicin], the MIC was under 0.25 µg/mL in test [5], 1 µg/mL (≈ 2.09 µM) in [6], 32 µg/mL (≈ 67 µM) in the test on E. faeciumVR [7] and over 128 µg/mL in the test on E. faeciumVS [8].

As for `CN[C@H](CC(C)C)C(=O)N[C@H]1C(=O)N[C@@H](CC(N)=O)C(=O)N[C@H]2C(=O)N[C@H]3C(=O)N[C@H](C(=O)N[C@H](C(=O)O)c4cc(O)cc(O)c4-c4cc3ccc4O)[C@H](O)c3ccc(c(Cl)c3)Oc3cc2cc(c3O[C@@H]2O[C@H](CO)[C@@H](O)[C@H](O)[C@H]2O[C@H]2C[C@](C)(N)[C@H](O)[C@H](C)O2)Oc2ccc(cc2Cl)[C@H]1O` [Vancomycin], the MIC is 8 µg/mL (≈ 5.52 µM) in test [1], 2 µg/mL (≈ 1.38 µM) in test [2], over 128 µg/mL in the test on E. faeciumVR [3] and 16 µg/mL (≈ 11 µM) in the test on E. faeciumVS [4].

In the case of `CO[C@H]1/C=C/O[C@@]2(C)Oc3c(C)c(O)c4c(O)c(c(/C=N/N5CCN(C)CC5)c(O)c4c3C2=O)NC(=O)/C(C)=C\C=C\[C@H](C)[C@H](O)[C@@H](C)[C@@H](O)[C@@H](C)[C@H](OC(C)=O)[C@@H]1C` [Rifampicin], the MIC in [1] stood at 0.5 µg/mL (≈ 0.608 µM); in test [2], 0.5 µg/mL (≈ 0.608 µM); with E. faeciumVR [3], 16 µg/mL (≈ 19.4 µM); in the test on E. faeciumVS [4], 8 µg/mL (≈ 9.72 µM).

Take `C[C@@H](O)[C@H]1C(=O)N2C(C(=O)O)=C(S[C@@H]3CN[C@H](C(=O)N(C)C)C3)[C@H](C)[C@H]12` [Meropenem]: the MIC in test [1] was 8 µg/mL (≈ 20.9 µM); in test [2], under 0.25 µg/mL; in the test on E. faeciumVR [3], over 128 µg/mL; against E. faeciumVS [4], over 128 µg/mL.

In the case of `C[C@H]1[C@H](NC(=O)/C(=N\OC(C)(C)C(=O)O)c2csc(N)n2)C(=O)N1S(=O)(=O)O` [Aztreonam], the MIC (in test [1]; in [2]; against E. faeciumVR [3]; against E. faeciumVS [4]) was over 128 µg/mL in each case.

Source of the values: PMC9600172, “N-Succinyltransferase Encoded by a Cryptic Siderophore Biosynthesis Gene Cluster in Streptomyces Modifies Structurally Distinct Antibiotics” (mBio, 2022).
